From US7214494B2, “Method of screening for substance preventing or treating diseases in association with malfunction of IL-6 family cytokine receptor malfunction” (Saten Pharmaceutical Co., Ltd., priority 2000, dated 2007) come the findings set out here.

This test concerns arthritis in gp130^F759/F759 mice. In words: Screening test for anti-arthritis agents in gp130F759/F759 mice. In kind it is in vivo, mouse. The settings on record: for arthritis score: gp130^F759/F759 mice developing arthritis, methotrexate 0.4 mg/kg orally five days in a week from age of 9 months. The procedure: gp130^F759/F759 mice or mice obtained by backcrossing of the gp130^F759/F759 mice (gp130^F759/F759-related mice) were used as a model mouse. A test compound of antirheumatic drugs such as bucilamine and methotrexate, nonsteroidal anti-inflammatory drugs such as diclofenac, or steroidal drugs such as dexamethasone was administered. The administration was conducted before the onset of immune disorders or arthritis for screening of prophylactic drugs, whereas after the observation of visible arthritis for screening of therapeutic drugs. The following is to illustrate the screening test for anti-arthritic agents using methotrexate as a test compound, and screening tests for other compounds would be conducted according to a similar manner to the following.
Methotrexate was administered orally at a dose of 0.4 mg/kg to the mice at the aged of 9 months for five days in a week. […] The severity of arthritis was scored based on restricted range of motion, swelling and flare of digit joints, and the presence or absence of rigidity. The mice whose arthritis conditions were observed constantly for two weeks or more were estimated as developed animal, and incident and severity were determined with time course.

In the case of `CN(Cc1cnc2nc(N)nc(N)c2n1)c1ccc(C(=O)N[C@@H](CCC(=O)O)C(=O)O)cc1` [methotrexate], the arthritis score is, setting by setting: (aged 48 weeks (12-month-old), control 4.33±1.86) 1.33±0.33; (aged 53 weeks, control 4.67±0.67) 0.67±0.33. In addition, the “effect on arthritis in the mouse model” value (gp130^F759/F759 mice, 0.4 mg/kg orally) is on record as “inhibits the arthritis”.
